In patent publication US20210391038A1, “SPECIFICALLY-SHAPED CRYSTAL OF COMPOUND AND METHOD FOR PRODUCING SAME” (TOWA PHARMACEUTICAL CO., LTD., priority 2018, published 2021):
Structures can show the parent of a compound that is named as a salt.

Experiment: Measurement of critical degree of supersaturation of spherulite
Format: physicochemical
From the text: “Supersaturated solution” in the present description means a solution in a state of containing a solute exceeding the solubility. As the degree of supersaturation, “degree of supersaturation” can be used. Regarding the degree of supersaturation, when the concentration (mass concentration (g/g)) of a compound dissolved in a supersaturated solution is defined as C and the solubility of the compound is defined as Cs, the degree of supersaturation S can be represented by the following formula: […]
“Critical degree of supersaturation” in the present description means the lowest degree of supersaturation required to obtain a specifically-shaped crystal. […] The value of a critical degree of supersaturation varies depending on the shape of a crystal. For example, all of values of a critical degree of supersaturation required to obtain a plate crystal, a critical degree of supersaturation required to obtain a needle crystal, and a critical degree of supersaturation required to obtain a spherulite are different. The critical degree of supersaturation required to obtain a spherulite is higher than the critical degree of supersaturation required to obtain a plate crystal or a needle crystal.
The actual measured value of the critical degree of supersaturation (S*) can be measured as follows:
(1) 100 particles are observed by SEM. (2) 5 to 10 particles whose shape is close to a desired specific shape are selected, and the shape is evaluated. In particular, when the desired specific shape is a sphere, the sphericity is evaluated. (3) Based on the evaluation index of the shape, whether the selected particles have the desired specific shape or not is determined. In particular, when the desired specific shape is a sphere, the case where the sphericity is 0.60 or more is determined as a spherulite. (4) The above-mentioned operation is performed for each sample having a different degree of supersaturation during crystallization, and the minimum value of a degree of supersaturation having the specifically-shaped particles is determined as the critical degree of supersaturation. The difference between the maximum value of a degree of supersaturation not having the specifically-shaped particles and the critical degree of supersaturation should be 20% or less.
The critical degree of supersaturation of a spherulite of ketotifen fumarate was determined as follows. To 2.0 g of ketotifen fumarate, 10 mL (5 v/w) of methanol was added, followed by reflux to completely dissolve. This solution was added dropwise to 50 mL of isopropanol at 20° C. to prepare a supersaturated solution of ketotifen fumarate. The degree of supersaturation of the supersaturated solution at the end of dropwise addition was 9.0. The supersaturated solution was crystallized. The crystal was collected by filtration, followed by drying under reduced pressure at 40° C., thus obtaining a crystal of ketotifen fumarate.
Similarly, when a substrate and a solvent different from those mentioned above are used, a plurality of samples having a different degree of supersaturation are prepared and crystallized, and then the critical degree of supersaturation of the spherulite was measured.

For CC[C@H]1OC(=O)[C@H](C)[C@@H](O[C@H]2C[C@@](C)(OC)[C@@H](O)[C@H](C)O2)[C@H](C)[C@@H](O[C@@H]2O[C@H](C)C[C@H](N(C)C)[C@H]2O)[C@](C)(OC)C[C@@H](C)C(=O)[C@H](C)[C@@H](O)[C@]1(C)O [Clarithromycin], the “actual measured value of the critical degree of supersaturation” value (from here on “actual measured value”) was 17, the “Critical degree of supersaturation S Experimental value” (entry 8, solvent 1 THF, solvent 2 H2O, solvent 2/solvent 1 ratio 25, crystallization 0 °C) was 11 and the “Critical degree of supersaturation S Experimental value” (entry 9, solvent 1 THF, solvent 2 H2O, solvent 2/solvent 1 ratio 70, crystallization 0 °C) was 26. The “Critical degree of supersaturation S Experimental value” (entry 10, solvent 1 THF, solvent 2 H2O, solvent 2/solvent 1 ratio 75, crystallization 10 °C) was 17.
With COC(=O)[C@H](c1ccccc1Cl)N1CCc2sccc2C1 [Clopidogrel sulfate] the “Critical degree of supersaturation S Experimental value” (entry 3, solvent 1 H2O, solvent 2 2-BuOH, solvent 2/solvent 1 ratio 222, crystallization 20 °C) was 9.7.
For Cn1c(=O)c2[nH]cnc2n(C)c1=O.[Mg] [Theophylline magnesium salt], the “actual measured value” value was 3.5, the “Critical degree of supersaturation S Experimental value” (entry 28, solvent 1 MeOH, solvent 2 H2O, solvent 2/solvent 1 ratio 3, crystallization 0 °C) was 3.5 and the “Critical degree of supersaturation S Experimental value” (entry 29, solvent 1 EtOH, solvent 2 H2O, solvent 2/solvent 1 ratio 3, crystallization 0 °C) was 3.9. For the same molecule, the “Critical degree of supersaturation S Experimental value” (entry 30, solvent 1 Acetone, solvent 2 H2O, solvent 2/solvent 1 ratio 3, crystallization 0 °C) was 6.3 and the “Critical degree of supersaturation S Experimental value” (entry 31, solvent 1 IPA, solvent 2 H2O, solvent 2/solvent 1 ratio 3, crystallization 0 °C) was 6.6.
For CC(C)[C@H](N)C(=O)OCCOCn1cnc2c(=O)[nH]c(N)nc21 [Valacyclovir hydrochloride], the “Critical degree of supersaturation S Experimental value” (entry 56, solvent 1 H2O, solvent 2 2-BuOH, solvent 2/solvent 1 ratio 35, crystallization 10 °C) was 48.6.
With N#C[C@@H]1CCCN1C(=O)CNC12CC3CC(CC(O)(C3)C1)C2 [Vildagliptin] the “actual measured value” value was 9.2, the “Critical degree of supersaturation S Experimental value” (entry 39, solvent 1 EtOH, solvent 2 TBME, solvent 2/solvent 1 ratio 10, crystallization 0 °C) was 9.2 and the “Critical degree of supersaturation S Experimental value” (entry 40, solvent 1 EtOH, solvent 2 TBME, solvent 2/solvent 1 ratio 10, crystallization 10 °C) was 7. The “Critical degree of supersaturation S Experimental value” (entry 41, solvent 1 MEK, solvent 2 Toluene, solvent 2/solvent 1 ratio 10, crystallization 0 °C) was 8.5, the “Critical degree of supersaturation S Experimental value” (entry 42, solvent 1 IPA, solvent 2 TBME, solvent 2/solvent 1 ratio 10, crystallization 0 °C) was 11 and the “Critical degree of supersaturation S Experimental value” (entry 43, solvent 1 IPA, solvent 2 TBME, solvent 2/solvent 1 ratio 10, crystallization 10 °C) was 11.6. The “Critical degree of supersaturation S Experimental value” (entry 44, solvent 1 IPA, solvent 2 TBME, solvent 2/solvent 1 ratio 10, crystallization 20 °C) was 11.9.
In the case of Cc1cccc(C)c1NC(=O)CC12CCCN1CCC2.Cl [Pilsicainide hydrochloride anhydride], the “actual measured value” value was 27 and the “Critical degree of supersaturation S Experimental value” (entry 35, solvent 1 IPA, solvent 2 Toluene, solvent 2/solvent 1 ratio 10, crystallization 5 °C) was 27.
With O=C(O)CCCN1CCC(O[C@@H](c2ccc(Cl)cc2)c2ccccn2)CC1.O=S(=O)(O)c1ccccc1 [Bepotastine besilate] the “actual measured value” value was 36.4 and the “Critical degree of supersaturation S Experimental value” (entry 57, solvent 1 EtOH, solvent 2 AcOiPr, solvent 2/solvent 1 ratio 10, crystallization 0 °C) was 36.4.
For Nc1nc(CC(=O)Nc2ccc(CCNC[C@H](O)c3ccccc3)cc2)cs1 [Mirabegron], the “actual measured value” value was 5.6, the “Critical degree of supersaturation S Experimental value” (entry 48, solvent 1 H2O, solvent 2 MeOH, solvent 2/solvent 1 ratio 1.25, crystallization 0 °C) was 1.6 and the “Critical degree of supersaturation S Experimental value” (entry 49, solvent 1 H2O, solvent 2 MeOH, solvent 2/solvent 1 ratio 1.25, crystallization 10 °C) was 3.2. For the same molecule, the “Critical degree of supersaturation S Experimental value” (entry 50, solvent 1 MeOH, solvent 2 TBME, solvent 2/solvent 1 ratio 10, crystallization 0 °C) was 4, the “Critical degree of supersaturation S Experimental value” (entry 51, solvent 1 MeOH, solvent 2 TBME, solvent 2/solvent 1 ratio 10, crystallization 10 °C) was 4.3 and the “Critical degree of supersaturation S Experimental value” (entry 52, solvent 1 EtOH, solvent 2 TBME, solvent 2/solvent 1 ratio 10, crystallization 0 °C) was 5.6. The “Critical degree of supersaturation S Experimental value” (entry 53, solvent 1 EtOH, solvent 2 TBME, solvent 2/solvent 1 ratio 10, crystallization 10 °C) was 5.4.
In the case of CN(C)CC/C=C1/c2ccccc2COc2ccc(CC(=O)O)cc21 [Olopatadine], the “actual measured value” value was 9.7 and the “Critical degree of supersaturation S Experimental value” (entry 58, solvent 1 MeOH, solvent 2 EtOAc, solvent 2/solvent 1 ratio 20, crystallization 15 °C) was 9.7.
With Cc1ccccc1C(=O)Nc1ccc(C(=O)N2CCCC(O)c3cc(Cl)ccc32)c(C)c1 (stereo not drawn) [Tolvaptan] the “actual measured value” value was 4.8, the “Critical degree of supersaturation S Experimental value” (entry 54, solvent 1 MeOH, solvent 2 H2O, solvent 2/solvent 1 ratio 0.4, crystallization 0 °C) was 4.8 and the “Critical degree of supersaturation S Experimental value” (entry 55, solvent 1 MeOH, solvent 2 H2O, solvent 2/solvent 1 ratio 0.4, crystallization 10 °C) was 7.1.
With CN1CCC(=C2c3ccccc3CC(=O)c3sccc32)CC1 [Ketotifen fumarate] the “Critical degree of supersaturation S Experimental value” (entry 4, solvent 1 MeOH, solvent 2 IPA, solvent 2/solvent 1 ratio 5, crystallization 0 °C) was 2.5, the “Critical degree of supersaturation S Experimental value” (entry 5, solvent 1 MeOH, solvent 2 IPA, solvent 2/solvent 1 ratio 5, crystallization 50 °C) was 4 and the “Critical degree of supersaturation S Experimental value” (entry 6, solvent 1 MeOH, solvent 2 2-BuOH, solvent 2/solvent 1 ratio 5, crystallization 0 °C) was 1.6. The “Critical degree of supersaturation S Experimental value” (entry 7, solvent 1 MeOH, solvent 2 2-BuOH, solvent 2/solvent 1 ratio 5, crystallization 20 °C) was 4.4 and the “critical degree of supersaturation of a spherulite” value (methanol to isopropanol 1:5, temperature during crystallization 20° C.) was 4.0.
In the case of CCCCCCOC(=O)N=C(N)c1ccc(NCc2nc3cc(C(=O)N(CCC(=O)OCC)c4ccccn4)ccc3n2C)cc1 [Dabigatran etexilate methanesulfonate], the “actual measured value” value was 4.3, the “Critical degree of supersaturation S Experimental value” (entry 24, solvent 1 MeOH, solvent 2 TBME, solvent 2/solvent 1 ratio 10, crystallization 20 °C) was 3.3 and the “Critical degree of supersaturation S Experimental value” (entry 25, solvent 1 EtOH, solvent 2 EtOAc, solvent 2/solvent 1 ratio 10, crystallization 5 °C) was 2.9. For the same molecule, the “Critical degree of supersaturation S Experimental value” (entry 26, solvent 1 EtOH, solvent 2 EtOAe, solvent 2/solvent 1 ratio 10, crystallization 20 °C) was 4.3 and the “Critical degree of supersaturation S Experimental value” (entry 27, solvent 1 EtOH, solvent 2 EtOAc, solvent 2/solvent 1 ratio 10, crystallization 35 °C) was 5.2.
With CC[C@H]1OC(=O)[C@H](C)[C@@H](O[C@H]2C[C@@](C)(OC)[C@@H](O)[C@H](C)O2)[C@H](C)[C@@H](O[C@@H]2O[C@H](C)C[C@H](N(C)C)[C@H]2O)[C@](C)(O)C[C@@H](C)CN(C)[C@H](C)[C@@H](O)[C@]1(C)O [Azithromycin monohydrate] the “Critical degree of supersaturation S Experimental value” (entry 11, solvent 1 IPA, solvent 2 H2O, solvent 2/solvent 1 ratio 10, crystallization 0 °C) was 3.2, the “Critical degree of supersaturation S Experimental value” (entry 14, solvent 1 IPA, solvent 2 H2O, solvent 2/solvent 1 ratio 20, crystallization 0 °C) was 1.6 and the “Critical degree of supersaturation S Experimental value” (entry 15, solvent 1 Acetone, solvent 2 H2O, solvent 2/solvent 1 ratio 10, crystallization 0 °C) was 6.2. For the same molecule, the “Critical degree of supersaturation S Experimental value” (entry 16, solvent 1 EtOH, solvent 2 H2O, solvent 2/solvent 1 ratio 20, crystallization 0 °C) was 7.1, the “Critical degree of supersaturation S Experimental value” (entry 17, solvent 1 MeOH, solvent 2 H2O, solvent 2/solvent 1 ratio 20, crystallization 0 °C) was 7.5 and the “Critical degree of supersaturation S Experimental value” (entry 18, solvent 1 IPA, solvent 2 H2O, solvent 2/solvent 1 ratio 10, crystallization 20 °C) was 11.1.
In the case of N[C@@H](CCC(=O)N[C@@H](CS)C(=O)NCC(=O)O)C(=O)O [Glutathione], the “actual measured value” value was 18.7 and the “Critical degree of supersaturation S Experimental value” (entry 47, solvent 1 H2O, solvent 2 EtOH, solvent 2/solvent 1 ratio 5, crystallization 20 °C) was 18.7.
In the case of CN(C)CCC[C@@]1(c2ccc(F)cc2)OCc2cc(C#N)ccc21 [Escitalopram oxalate], the “actual measured value” value was 3.7, the “Critical degree of supersaturation S Experimental value” (entry 21, solvent 1 H2O, solvent 2 2-BuOH, solvent 2/solvent 1 ratio 30, crystallization 0 °C) was 2.8 and the “Critical degree of supersaturation S Experimental value” (entry 22, solvent 1 H2O, solvent 2 2-BuOH, solvent 2/solvent 1 ratio 15, crystallization 0 °C) was 3.7. For the same molecule, the “Critical degree of supersaturation S Experimental value” (entry 23, solvent 1 H2O, solvent 2 IPA, solvent 2/solvent 1 ratio 15, crystallization 0 °C) was 4.
For COc1cccc(C2(O)CCCCC2CN(C)C)c1 (stereo not drawn) [Tramadol hydrochloride], the “actual measured value” value was 4.2, the “Critical degree of supersaturation S Experimental value” (entry 36, solvent 1 MeOH, solvent 2 i-PrOAc, solvent 2/solvent 1 ratio 20, crystallization 10 °C) was 4.7 and the “Critical degree of supersaturation S Experimental value” (entry 37, solvent 1 IPA, solvent 2 TBME, solvent 2/solvent 1 ratio 30, crystallization 10 °C) was 11.1. For the same molecule, the “Critical degree of supersaturation S Experimental value” (entry 38, solvent 1 EtOH, solvent 2 TBME, solvent 2/solvent 1 ratio 30, crystallization 10 °C) was 22.4.
